According to patent publication US20200369996A1, “Bioreactor Screening Platform for Modelling Human Systems Biology and for Screening for Inotropic Effects of Agents on the Heart” (NOVOHEART LIMITED, priority 2017, published 2020):
Several values for one entry are separate records, joined by “and”; a condition that tells them apart may be missing. Equal entries are not always repeated. Where two headings read alike, the source gives them in different places.

Columns and labels:
[1] = tested on: human ventricular cardiac tissue strips (hvCTS); experiment: hvCTS drug screening: twitch force under electrical pacing; assay type: cell-based; details: for IC50 / EC50: Homo sapiens; for IC50: read-out: IC50, developed contractile force
Method: One of ordinary skill in the art will recognize that the gels can be formed in any of a variety of sizes and shapes, and the molds used to form such gels can also be formed in any of a variety of sizes and shapes, depending on the intended use of the molded gel. The molded mixtures were then bathed with culture medium (DMEM supplemented with 10% newborn calf serum), and maintained in culture with daily half-medium exchanges. Inserts in the casting molds were removed at 48 hours, yielding a self-assembled hvCTS held between 0.5-mm-diameter circular PDMS posts at each end. It is apparent that the posts can be formed from any flexible material amenable to at least one form of sterilization are suitable. As noted above, the whole mold can be scaled up or down depending on the application, and the posts can also be scaled up or down. In general, the height of the posts would be similar to the height of a well (e.g., about 6 mm in an exemplary embodiment). Any of a wide variety of cross-sectional shapes is contemplated as being suitable for use in the system, apparatus and methods according to the disclosure. At 7 days after hvCTS creation, the hvCTS were used for drug screening.
Initially, pharmacological compounds were prepared for screening. Compounds for unblinded “open label” screening were purchased from Sigma and stock solutions at the highest possible concentrations were prepared according to the product information. Working concentrations over a 5-logarithmic range were prepared for each drug.
Working concentrations over a 5-logarithmic range were prepared for each drug according to the dose-range recommendation provided by the supplier.
New born calf serum containing medium was replaced with DMEM high glucose with HEPES without phenol red for optical measurement of generated force in hvCTS. […] The integrated flexible PDMS posts were used as force sensors, with the post deflection captured in real-time with a high-speed camera (100 frames/s) and LabView software (National Instruments, Austin, Tex., USA), applying a beam-bending equation from elasticity theory to calculate twitch force, as described previously^[2] and incorporated herein by reference. These measurements were obtained with the hvCTS maintained in the original molds where they were created with the hvCTS bathed in culture medium at 37° C. For each drug, force generated in response to 9 doses were measured with the drugs added to the hvCTS at half log increments in a cumulative manner. For each dose, the force generated at 0 Hz, 0.5 Hz, 1 Hz, 1.5 Hz and 2 Hz electrical pacing with field electrodes were measured.
Data analysis. Data were calculated and analyzed by a customized MatLab program. Force frequency curves for each drug were generated by plotting the generated force at 0.5 Hz, 1 Hz, 1.5 Hz and 2 Hz at different concentrations. All forces were normalized to the generated force at 0.5 Hz at the drug-free baseline condition (100%).
[…] The force generated under drug-free baseline condition was defined as 100%. The force generated at each drug concentration was then normalized to the generated force under the cognate drug-free baseline condition. The EC50 of each tested drug was estimated by fitting to a four-parameter dose-response equation given as: Y=Bottom+(Top-Bottom)/(1+10^((Log EC^50^−X)*HillSlope)), using commercial software (GraphPad Software Inc.). X is the logarithm of drug concentrations; […]; Top and Bottom are the Y values of the top and bottom plateaus of the curve itself; Baseline is the Y value that defines 0%—maximal inhibition by a standard drug. Hill Slope quantifies the steepness of the dose-response curve (the higher the Hill Slope, the steeper the curve).

[2] = cited from earlier work; for peak plasma concentration for improved ejection fraction and work product: ref [17]
[3] = tested on: isolated human atrial tissue; details: isolated human atrial tissue from cardiac bypass; ref [6]; cited from earlier work
[4] = tested on: human atrial and ventricular cardiomyocytes; details: ref [8]; cited from earlier work
[5] = tested on: chick embryonic ventricular cells; details: ref [9]; cited from earlier work
canine papillary muscle = details: ref [11]; cited from earlier work
human atrial trabeculae = details: ref [13]; cited from earlier work
rat atrial trabeculae = details: ref [14]; cited from earlier work
[6] = tested on: human right atrial trabeculae; details: ref [21]; cited from earlier work
[7] = 1 Hz pacing, blinded screening, Example 4
[8] = Blinded, 1 Hz pacing, read-out: -log EC50 in hvCTS (converted)
[9] = Blinded, 1 Hz pacing, read-out: EC50 in hvCTS (in brackets)
[10] = 1 Hz pacing, unblinded screening, Example 3
[11] = Unblinded, 1 Hz pacing, read-out: -log EC50 in hvCTS (converted)
[12] = Unblinded, 1 Hz pacing, read-out: EC50 in hvCTS (in brackets)
[13] = 1 Hz pacing, blinded screening, Example 4, read-out: EC50, developed contractile force
[14] = 1 Hz pacing, unblinded screening, Example 3, read-out: EC50, developed contractile force

SMILES: CN(C)CCC=C1c2ccccc2CCc2ccccc21 [Amitriptyline]
- IC50 [1, 7]: 450 µM
- EC50 [1, 8]: 447 µM
- EC50 [1, 9]: 450 µM
- plasma concentration in psychiatric patients ([2]; ref [5]): 98-208 ng/mL and 0.35-0.74 μM
- 30-60% effective concentration [3]: 40-400 μM [6], 30-60% effective concentration

SMILES: CC(=O)Oc1ccccc1C(=O)O [Aspirin]
- effect on developed contractile force / contractility ([1]; blinded screening, Example 4): did not show any dose-dependent effect on contractility

SMILES: CC(C)COCC(CN(Cc1ccccc1)c1ccccc1)N1CCCC1 (centres unmarked) [Bepridil]
- IC50 [1, 10]: 3.3 µM
- EC50 [1, 11]: 38 µM
- EC50 [1, 12]: 37.9 µM
- relevant concentration [4]: 100 μM [8], human atrial and ventricular

SMILES: Cn1c(=O)c2c(ncn2C)n(C)c1=O [Caffeine]
- EC50 [1, 13]: 0.29 µM
- EC50 [1, 8]: 0.288 µM
- EC50 [1, 9]: 0.287 µM
- relevant concentration [5]: 20 mM [9], in chick embryonic ventricular cells

SMILES: C[C@H]1O[C@@H](O[C@H]2[C@@H](O)C[C@H](O[C@H]3[C@@H](O)C[C@H](O[C@H]4CC[C@@]5(C)[C@H](CC[C@@H]6[C@@H]5C[C@@H](O)[C@]5(C)[C@@H](C7=CC(=O)OC7)CC[C@]65O)C4)O[C@@H]3C)O[C@@H]2C)C[C@H](O)[C@@H]1O [Digoxin]
- EC50 ([1]; read-out: -log EC50 in hvCTS (converted)): 3.63 µM
- EC50 ([1]; read-out: EC50, developed contractile force): 3.7 µM
- EC50 ([1]; read-out: EC50 in hvCTS (in brackets)): 3.65 µM
- relevant concentration, increased pre-ejection period index ([2]; ref [10]): 1 ng/ml (1 nM) ([10], increased pre-ejection

SMILES: CC(C)N(CCC(C(N)=O)(c1ccccc1)c1ccccn1)C(C)C (centres unmarked) [Disopyramide]
- EC50 [1, 14]: 80 µM
- EC50 [1, 11]: 81.3 µM
- EC50 [1, 12]: 82.2 µM
- EC50 of developed tension (canine papillary muscle): 824 μg [11], EC50 of developed tension in canine

SMILES: CC(CCc1ccc(O)cc1)NCCc1ccc(O)c(O)c1 (centres unmarked) [Dobutamine]
- EC50 [1, 13]: 0.25 µM
- EC50 [1, 14]: 0.015 µM
- EC50 [1, 8]: 0.245 µM
- EC50 [1, 9]: 0.25 µM
- EC50 [1, 11]: 0.0151 µM
- EC50 [1, 12]: 0.015 µM
- peak plasma concentration with increased cardiac output ([2]; ref [12]): 147-152 ng/ml and 0.487-0.5 μM
- relevant concentration (human atrial trabeculae): 0.217 μM [13], human atrial trabeculae

SMILES: NCCc1ccc(O)c(O)c1 [Dopamine]
- effect on developed contractile force / contractility ([1]; blinded screening, Example 4): did not significantly affect the developed contractile force
- relevant concentration (rat atrial trabeculae): 20 μM [14], in rat atrial trabeculae

SMILES: O=C(NCC1CCCCN1)c1cc(OCC(F)(F)F)ccc1OCC(F)(F)F (centres unmarked) [Flecainide]
- IC50 [1, 7]: 15 µM
- EC50 [1, 14]: 75 µM
- EC50 [1, 8]: 15.1 µM
- EC50 [1, 9]: 151 µM
- EC50 [1, 11]: 75.9 µM
- EC50 [1, 12]: 75 µM

SMILES: COc1ccc(Cl)cc1C(=O)NCCc1ccc(S(=O)(=O)NC(=O)NC2CCCCC2)cc1 [Glibenclamide]
- EC50 [1, 13]: 3.2 µM
- EC50 [1, 14]: 0.93 µM
- EC50 [1, 8]: 3.16 µM
- EC50 [1, 9]: 3.17 µM
- EC50 [1, 11]: 0.933 µM
- EC50 [1, 12]: 0.93 µM
- peak plasma concentration for improved ejection fraction and work product ([2]; after 5 mg oral administration): 479 ng/ml and 0.096 μM

SMILES: C[C@@H]1CC(=O)NN=C1c1ccc(NN=C(C#N)C#N)cc1 [Levosimendan]
- EC50 [1, 14]: 0.15 µM
- EC50 [1, 11]: 0.145 µM
- EC50 [1, 12]: 0.15 µM
- relevant concentration (human atrial trabeculae): 0.19 μM [13], human atrial trabeculae

SMILES: NCCCC[C@H](N[C@@H](CCc1ccccc1)C(=O)O)C(=O)N1CCC[C@H]1C(=O)O [Lisinopril]
- effect on developed contractile force / contractility ([1]; blinded screening, Example 4): small increase in developed contractile force with increasing concentrations

SMILES: COCC(=O)O[C@]1(CCN(C)CCCc2nc3ccccc3[nH]2)CCc2cc(F)ccc2[C@@H]1C(C)C [Mibefradil]
- IC50 [1, 10]: 38 µM
- EC50 [1, 11]: 3.16 µM
- EC50 [1, 12]: 3.39 µM
- IC50 [6]: 24.5 µM

SMILES: Cc1[nH]c(=O)c(C#N)cc1-c1ccncc1 [Milrinone]
- EC50 [1, 13]: 2.8 µM
- EC50 [1, 14]: 0.41 µM
- EC50 [1, 8]: 2.75 µM
- EC50 [1, 9]: 2.77 µM
- EC50 [1, 11]: 0.407 µM
- EC50 [1, 12]: 0.41 µM

SMILES: COC(=O)C1=C(C)NC(C)=C(C(=O)OC)C1c1ccccc1[N+](=O)[O-] [Nifedipine]
- plasma concentration in patients with ischemic heart disease ([2]; ref [23]): 29-73 ng/ml and 0.083-0.21 μM

SMILES: NC[C@H](O)c1ccc(O)c(O)c1 [Norepinephrine]
- EC50 [1, 13]: 0.35 µM
- EC50 [1, 8]: 0.347 µM
- EC50 [1, 9]: 0.35 µM
- plasma level after epinephrine infusion ([2]; ref [24]): 267 pg/ml and 0.15 nM

SMILES: CCN(CC)CCNC(=O)c1ccc(N)cc1 [Procainamide]
- EC50 of developed tension (canine papillary muscle): 7952 μg [11], EC50 of developed tension in canine

SMILES: C=C[C@H]1C[N@@]2CC[C@H]1C[C@@H]2[C@@H](O)c1ccnc2ccc(OC)cc12 [Quinidine]
- IC50 [1, 7]: 200 µM
- EC50 [1, 8]: 204 µM
- EC50 [1, 9]: 200 µM
- peak plasma concentration ([2]; at 495 mg, ref [26]): 2.07 μg/ml and 6.3 μM

SMILES: CCOC(=O)[C@H](CCc1ccccc1)N[C@@H](C)C(=O)N1[C@H](C(=O)O)C[C@@H]2CCC[C@@H]21 [Ramipril]
- effect on developed contractile force / contractility ([1]; blinded screening, Example 4): did not show any dose-dependent effect on contractility

SMILES: Cc1cccc(C)c1NC(=O)C(C)N (centres unmarked) [Tocainide]
- effect on developed contractile force ([1]; all concentrations and pacing frequencies, unblinded screening, Example 3): did not show any effect on developed contractile force
- effect on developed contractile force ([1]; all tested pacing frequencies, Example 2 / FIG. 2): no dose-dependent effect on contractile force
- effect on developed contractile force ([1]; all tested pacing frequencies, Example 2 / FIG. 2, listed as tocainide): No consistent change in developed contractile force
- EC50 of developed tension (canine papillary muscle): 1212 μg [11], EC50 of developed tension in canine

SMILES: CCCCNC(=O)NS(=O)(=O)c1ccc(C)cc1 [Tolbutamide]
- effect on developed contractile force / contractility ([1]; blinded screening, Example 4): did not show any dose-dependent effect on contractility
- peak plasma concentration for improved ejection fraction and work product ([2]; after 1250 mg oral administration): 63.5 μg/ml and 230 μM
